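96-well plates; 48 h exposure; 5 concentrations. Endpoints by linear interpolation between flanking doses. Not reached: highest tested concentration assigned. Abbreviation: GI50, concentration required for 50% inhibition of growth.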 The source made the active and inactive calls. Rule as the data show it: active = GI50 up to about 1.1 µM and inactive = higher.
Key:
Assay in all cases: inhibition of tumour cell growth, NCI panel, 48 h
[1] = tested on: EKVX
[2] = tested on: HT-29
[3] = tested on: IGROV-1
[4] = tested on: SF-539
[5] = tested on: NCI-H23
[6] = tested on: SK-OV-3
[7] = tested on: OVCAR-5
[8] = tested on: PC-3
[9] = tested on: SN12C
[10] = tested on: MCF7
[11] = tested on: Malme-3M
[12] = tested on: MDA-N
[13] = tested on: RXF 393
[14] = tested on: A498
[15] = tested on: CAKI-1
[16] = tested on: SK-MEL-2
[17] = tested on: SW-620
[18] = tested on: K562
[19] = tested on: MDA-MB-435
[20] = tested on: SK-MEL-5
[21] = tested on: U-251
[22] = tested on: MOLT-4
[23] = tested on: SF-295
[24] = tested on: SR
[25] = tested on: UACC-62
[26] = tested on: NCI-H226
[27] = tested on: SNB-19
[28] = tested on: KM12
[29] = tested on: RPMI-8226
[30] = tested on: CCRF-CEM
[31] = tested on: DU-145
[32] = tested on: T47D
[33] = tested on: ACHN
[34] = tested on: HCT-116
[35] = tested on: UO-31
[36] = tested on: COLO 205
[37] = tested on: UACC-257
[38] = tested on: MDA-MB-231
[39] = tested on: Hs-578T
[40] = tested on: LOX IMVI
[41] = tested on: NCI-H522
[42] = tested on: NCI-H460
[43] = tested on: SK-MEL-28
[44] = tested on: SF-268
[45] = tested on: 786-0
[46] = tested on: M14
[47] = tested on: HCC 2998
[48] = tested on: BT-549
[49] = tested on: OVCAR-3
[50] = tested on: HL-60
[51] = tested on: NCI/ADR-RES
[52] = tested on: OVCAR-4
[53] = tested on: TK-10
[54] = tested on: A549
[55] = tested on: HCT-15
[56] = tested on: OVCAR-8
[57] = tested on: HOP-62

What does the source list for COC(=O)c1cc(NC(=O)Cc2c[nH]c3ccccc23)cn1C?
GI50 [1]: > 100 µM (inactive); GI50 [2]: 65.9 µM (inactive); GI50 [3]: 22.5 µM (inactive); GI50 [4]: > 100 µM (inactive); GI50 [5]: > 100 µM (inactive); GI50 [6]: > 100 µM (inactive); GI50 [7]: > 100 µM (inactive); GI50 [8]: 44.6 µM (inactive); GI50 [9]: 42.9 µM (inactive); GI50 [10]: 60.8 µM (inactive); GI50 [11]: 57.7 µM (inactive); GI50 [12]: > 100 µM (inactive); GI50 [13]: > 100 µM (inactive); GI50 [14]: > 100 µM (inactive); GI50 [15]: > 100 µM (inactive); GI50 [16]: 81.7 µM (inactive); GI50 [17]: > 100 µM (inactive); GI50 [18]: 58.1 µM (inactive); GI50 [19]: 55.8 µM (inactive); GI50 [20]: 70.3 µM (inactive); GI50 [21]: 68.4 µM (inactive); GI50 [22]: 43.2 µM (inactive); GI50 [23]: > 100 µM (inactive); GI50 [24]: 39.4 µM (inactive); GI50 [25]: 8.69 µM (inactive); GI50 [26]: 21.7 µM (inactive); GI50 [27]: 70 µM (inactive); GI50 [28]: > 100 µM (inactive); GI50 [29]: 21.3 µM (inactive); GI50 [30]: 45.3 µM (inactive); GI50 [31]: > 100 µM (inactive); GI50 [32]: > 100 µM (inactive); GI50 [33]: 72.4 µM (inactive); GI50 [34]: 71.4 µM (inactive); GI50 [35]: 23.6 µM (inactive); GI50 [36]: 82 µM (inactive); GI50 [37]: > 100 µM (inactive); GI50 [38]: 27.4 µM (inactive); GI50 [39]: 33.7 µM (inactive); GI50 [40]: 58.3 µM (inactive); GI50 [41]: 36.1 µM (inactive); GI50 [42]: 70.5 µM (inactive); GI50 [43]: 42 µM (inactive); GI50 [44]: 88.5 µM (inactive); GI50 [45]: > 100 µM (inactive); GI50 [46]: > 100 µM (inactive); GI50 [47]: 68.1 µM (inactive); GI50 [48]: 57.5 µM (inactive); GI50 [49]: > 100 µM (inactive); GI50 [50]: > 100 µM (inactive); GI50 [51]: > 100 µM (inactive); GI50 [52]: 40.4 µM (inactive); GI50 [53]: 87.9 µM (inactive); GI50 [54]: 70.5 µM (inactive); GI50 [55]: 62.5 µM; GI50 [56]: 66.5 µM (inactive); GI50 [57]: 88.1 µM (inactive)
